Test results: ChEMBL document CHEMBL3526122, “Identification of UDP-glucuronosyltransferases responsible for the glucuronidation of darexaban, an oral factor Xa inhibitor, in human liver and intestine” (Drug Metab Dispos, 2012)

Key:
[1] = Drug metabolism in human liver microsomes assessed as glucuronidation after 10 mins by Michaelis-Menten plot analysis in presence of UDPGA and 0.1% fatty acid free BSA; format: ADME; conditions: read-out: Km(unbound)
[2] = target: T1, UDP-glucuronosyltransferase 2B17 (Homo sapiens, UniProt O75795); experiment: Activity of human recombinant UGT2B17 expressed in baculovirus-infected insect cells assessed as enzyme-mediated glucuronidation per mg of protein after 10 mins in presence of UDPGA; format: ADME
T1 sequence (O75795 whole entry): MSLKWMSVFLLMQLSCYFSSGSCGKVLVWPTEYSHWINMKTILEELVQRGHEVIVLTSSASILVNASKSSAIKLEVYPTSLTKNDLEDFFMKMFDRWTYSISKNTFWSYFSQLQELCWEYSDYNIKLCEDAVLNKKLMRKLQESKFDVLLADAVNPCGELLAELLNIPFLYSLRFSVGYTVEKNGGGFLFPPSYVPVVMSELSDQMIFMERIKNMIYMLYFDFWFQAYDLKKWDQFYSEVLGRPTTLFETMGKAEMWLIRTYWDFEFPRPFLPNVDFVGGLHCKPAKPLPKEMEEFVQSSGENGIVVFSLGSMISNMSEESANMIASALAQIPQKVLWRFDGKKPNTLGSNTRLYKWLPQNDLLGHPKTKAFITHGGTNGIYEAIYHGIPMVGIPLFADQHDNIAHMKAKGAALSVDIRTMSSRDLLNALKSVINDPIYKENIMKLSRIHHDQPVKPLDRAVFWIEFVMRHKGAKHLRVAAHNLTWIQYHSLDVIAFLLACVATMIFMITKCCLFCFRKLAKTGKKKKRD

Liver microsome [3] = experiment: Drug metabolism in human liver microsomes assessed as glucuronidation per mg of protein after 10 mins by Michaelis-Menten plot analysis in presence of UDPGA and 0.5% fatty acid free BSA; format: ADME
Liver microsome [4] = experiment: Unbound intrinsic clearance in human liver microsomes assessed per mg of protein after 10 mins in presence of UDPGA and 0.5% fatty acid free BSA; format: ADME
[5] = Fraction unbound in human liver microsomes at 1 to 250 uM after 10 mins by ultrafiltration method in presence of 2% fatty acid free BSA; format: ADME
Liver microsome [6] = experiment: Drug metabolism in human liver microsomes assessed as glucuronidation per mg of protein after 10 mins by Michaelis-Menten plot analysis in presence of UDPGA and 0.1% fatty acid free BSA; format: ADME
[7] = Fraction unbound in incubation mixture containing human recombinant UGT1A9 at 1 to 250 uM after 10 mins by ultrafiltration method in absence of fatty acid free BSA
[8] = target: T2, UDP-glucuronosyltransferase 1A8 (Homo sapiens, UniProt Q9HAW9); experiment: Inhibition of human recombinant UGT1A8 after 10 mins in presence of UDPGA; format: ADME
T2 sequence (Q9HAW9 whole entry): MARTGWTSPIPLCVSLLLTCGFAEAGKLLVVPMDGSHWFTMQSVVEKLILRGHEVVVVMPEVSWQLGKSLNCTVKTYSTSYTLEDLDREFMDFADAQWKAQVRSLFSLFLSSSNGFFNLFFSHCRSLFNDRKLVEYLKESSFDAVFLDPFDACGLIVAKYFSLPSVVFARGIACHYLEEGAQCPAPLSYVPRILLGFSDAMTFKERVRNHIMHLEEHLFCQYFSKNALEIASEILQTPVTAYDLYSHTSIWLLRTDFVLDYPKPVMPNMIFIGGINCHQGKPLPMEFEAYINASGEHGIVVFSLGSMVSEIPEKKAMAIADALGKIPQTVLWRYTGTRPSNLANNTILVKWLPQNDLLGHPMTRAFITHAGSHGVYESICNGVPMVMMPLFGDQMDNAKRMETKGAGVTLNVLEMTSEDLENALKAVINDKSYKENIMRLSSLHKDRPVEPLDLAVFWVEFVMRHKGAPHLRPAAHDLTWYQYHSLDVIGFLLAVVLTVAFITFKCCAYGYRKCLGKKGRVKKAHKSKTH

[9] = target: T3, UDP-glucuronosyltransferase 1A10 (Homo sapiens, UniProt Q9HAW8); experiment: Inhibition of human recombinant UGT1A10 after 10 mins in presence of UDPGA; format: ADME
T3 sequence (Q9HAW8 whole entry): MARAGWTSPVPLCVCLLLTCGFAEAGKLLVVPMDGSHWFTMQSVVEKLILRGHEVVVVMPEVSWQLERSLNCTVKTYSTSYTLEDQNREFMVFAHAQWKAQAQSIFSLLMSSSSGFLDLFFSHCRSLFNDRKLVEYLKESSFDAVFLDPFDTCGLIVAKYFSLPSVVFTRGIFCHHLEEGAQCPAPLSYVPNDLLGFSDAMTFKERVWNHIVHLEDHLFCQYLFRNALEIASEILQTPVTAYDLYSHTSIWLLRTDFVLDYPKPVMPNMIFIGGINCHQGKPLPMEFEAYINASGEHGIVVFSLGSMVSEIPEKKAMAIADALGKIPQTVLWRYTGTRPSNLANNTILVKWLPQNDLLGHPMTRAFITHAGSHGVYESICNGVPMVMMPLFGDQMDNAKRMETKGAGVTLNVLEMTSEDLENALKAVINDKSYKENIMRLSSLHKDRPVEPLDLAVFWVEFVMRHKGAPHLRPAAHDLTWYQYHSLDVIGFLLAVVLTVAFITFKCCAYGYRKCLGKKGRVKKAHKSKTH

[10] = target: T2, UDP-glucuronosyltransferase 1A8; experiment: Ratio of Ki to Km for human recombinant UGT1A8 expressed in baculovirus-infected insect cells; format: ADME; conditions: recombinant enzyme
[11] = target: T4, UDP-glucuronosyltransferase 1A1 (Homo sapiens, UniProt P22309); experiment: Activity of human recombinant UGT1A1 expressed in baculovirus-infected insect cells assessed as enzyme-mediated glucuronidation per mg of protein after 10 mins in presence of UDPGA; format: ADME
T4 sequence (P22309 whole entry): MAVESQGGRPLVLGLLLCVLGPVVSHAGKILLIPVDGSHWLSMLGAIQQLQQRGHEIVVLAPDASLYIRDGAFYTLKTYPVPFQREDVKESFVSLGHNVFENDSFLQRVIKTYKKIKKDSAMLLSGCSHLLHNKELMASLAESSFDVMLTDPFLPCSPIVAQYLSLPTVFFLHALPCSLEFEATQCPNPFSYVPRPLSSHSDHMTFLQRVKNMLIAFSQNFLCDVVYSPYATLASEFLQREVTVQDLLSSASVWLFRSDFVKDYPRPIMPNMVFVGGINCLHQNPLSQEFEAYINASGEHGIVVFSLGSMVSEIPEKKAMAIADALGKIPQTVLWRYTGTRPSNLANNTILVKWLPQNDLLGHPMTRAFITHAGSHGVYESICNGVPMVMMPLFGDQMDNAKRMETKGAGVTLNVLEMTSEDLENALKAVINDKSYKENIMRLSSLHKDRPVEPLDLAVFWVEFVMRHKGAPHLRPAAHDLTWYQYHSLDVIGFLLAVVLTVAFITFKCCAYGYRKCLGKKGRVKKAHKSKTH

[12] = Drug metabolism in human liver microsomes assessed as glucuronidation at 30 uM after 10 mins by LC-MS/MS analysis relative to vehicle-treated control in presence of propofol and UDPGA; format: ADME; conditions: with propofol, read-out: Drug metabolism
[13] = target: T3, UDP-glucuronosyltransferase 1A10; experiment: Activity of recombinant human UGT1A10 expressed in baculovirus-infected insect cells assessed as enzyme-mediated glucuronidation per mg of protein after 10 mins in presence of UDPGA; format: ADME

Km at 10 min [1]: 17.7 µM
Drug metabolism [2]: < 0.01 nmol/min/mg
Vmax (Liver microsome [3]): 3.25 nmol/min/mg
CL free (Liver microsome [4]): 184 µL/min/mg
fraction unbound at 10 min, up to 250 µM [5]: 0.251
Vmax (Liver microsome [6]): 3.25 nmol/min/mg
Ki [8]: 354 µM
Ki [9]: 235 µM
Ratio [10]: 30
Drug metabolism [11]: < 0.01 nmol/min/mg
activity at 10 min, 30 µM [12]: 9%
Drug metabolism [13]: 0.516 nmol/min/mg
Compound: COc1ccc(C(=O)Nc2cccc(O)c2NC(=O)c2ccc(N3CCCN(C)CC3)cc2)cc1.O=C(O)CCC(=O)O
Fu [7]: 0.879
